Experimental data from patent US20240398805A1, “QUINAZOLINE DERIVED COMPOUNDS AS EGFR INHIBITORS AND THEIR USES THEREOF” (ACCUTAR BIOTECHNOLOGY INC., priority 2021, published 2024).

Key:
Format in all cases: cell-based
HCC827 cells = test: Cell growth inhibition (CellTiter-Glo, 3 days) in HCC827; conditions: Homo sapiens, 72 h, 3 days after administration
Procedure, shortened: (§1)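 HCC827 cells were plated at 5000 cells/well in RPMI with 10% FBS, and A431 cells at the same density in DMEM with 10% FBS. After overnight attachment, compounds were added at various concentrations. Luminescence was recorded after plates were equilibrated to room temperature and incubated 10 min with reagent.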

[1] = tested on: HCC827-SVD cells (human EGFR exon 20 insertion mutant D770_N771 insSVD); test: Cell growth inhibition (CellTiter-Glo, 3 days) in HCC827-SVD; conditions: 72 h, 3 days after administration
Procedure, shortened: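 HCC827 cells carrying lentiviral codon-optimized EGFR D770_N771 insSVD, with endogenous EGFR knocked out by CRISPR (single clone), seeded at 5000 cells/well in RPMI with 10% FBS. Viability read by CellTiter-Glo luminescence.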

[2] = tested on: HCC827-ASV cells (human EGFR exon 20 insertion mutant A769_D770insASV); test: Cell growth inhibition (CellTiter-Glo, 3 days) in HCC827-ASV; conditions: 72 h, 3 days after administration
Procedure, shortened: (§2)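 Growth inhibition used a CellTiter-Glo luminescence read-out after 3 days of compound exposure at various concentrations. Cells were plated the day before at 5000/well in RPMI plus 10% FBS. The lines are HCC827 transduced by lentivirus with codon-optimized EGFR ASV or ERBB2 YVMA exon 20 insertions.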

[3] = tested on: HCC827-YVMA cells (human ERBB2 exon20 insertion mutant A775_G776ins YVMA); test: Cell growth inhibition (CellTiter-Glo, 3 days) in HCC827-YVMA; conditions: 72 h, 3 days after administration
Procedure, shortened: as §2

A431 cells = test: Cell growth inhibition (CellTiter-Glo, 3 days) in A431; conditions: Homo sapiens, A-431, 72 h, 3 days after administration
Procedure, shortened: as §1

SMILES: C=CC(=O)N1CCC(Nc2cc3c(Nc4ccc(Oc5ccnc(N6CCCC(C#N)C6)c5)cc4F)ncnc3cc2OC)CC1 (centres unmarked) [Example 221, 1-(4-(4-((6-((1-acryloylpiperidin-4-yl)amino)-7-methoxyquinazolin-4-yl)amino)-3-fluorophenoxy)pyridin-2-yl)piperidine-3-carbonitrile]
- GI50 (HCC827 cells): 100 to 300 nM
- GI50 [1]: < 30 nM
- GI50 [2]: < 30 nM
- GI50 [3]: < 30 nM
- GI50 (A431 cells): 100 to 300 nM

SMILES: C=CC(=O)N1CCC(Nc2cc3c(Nc4ccc(Oc5ccnc(N6CCC[C@H](C)C6)c5)cc4F)ncnc3cc2OC)CC1 [Example 222, (S)-1-(4-((4-((2-fluoro-4-((2-(3-methylpiperidin-1-yl)pyridin-4-yl)oxy)phenyl)amino)-7-methoxyquinazolin-6-yl)amino)piperidin-1-yl)prop-2-en-1-one]
- GI50 (HCC827 cells): 60 to 100 nM
- GI50 [1]: < 30 nM
- GI50 [2]: < 30 nM
- GI50 [3]: < 30 nM
- GI50 (A431 cells): 600 to 1000 nM

SMILES: C=CC(=O)N1CCC(Nc2cc3c(Nc4ccc(Oc5ccnc(N6CCN(C)C(=O)C6)c5)cc4F)ncnc3cc2OC)CC1 [Example 223, 4-(4-(4-((6-((1-acryloylpiperidin-4-yl)amino)-7-methoxyquinazolin-4-yl)amino)-3-fluorophenoxy)pyridin-2-yl)-1-methylpiperazin-2-one]
- GI50 (HCC827 cells): 300 to 600 nM
- GI50 [1]: 100 to 300 nM
- GI50 [2]: 100 to 300 nM
- GI50 [3]: 100 to 300 nM
- GI50 (A431 cells): 600 to 1000 nM

SMILES: C=CC(=O)N1CCC(Nc2cc3c(Nc4ccc(Oc5ccnc(N6CCN[C@H](C)C6)c5)cc4F)ncnc3cc2OC)CC1 [Example 224, (R)-1-(4-((4-((2-fluoro-4-((2-(3-methylpiperazin-1-yl)pyridin-4-yl)oxy)phenyl)amino)-7-methoxyquinazolin-6-yl)amino)piperidin-1-yl)prop-2-en-1-one]
- GI50 (HCC827 cells): ≥ 1000 nM
- GI50 [1]: 300 to 600 nM
- GI50 [2]: 600 to 1000 nM
- GI50 [3]: 600 to 1000 nM
- GI50 (A431 cells): ≥ 1000 nM

SMILES: C=CC(=O)N1CCC(Nc2cc3c(Nc4ccc(Oc5ccnc(N6CCN[C@@H](C)C6)c5)cc4F)ncnc3cc2OC)CC1 [Example 225, (S)-1-(4-((4-((2-fluoro-4-((2-(3-methylpiperazin-1-yl)pyridin-4-yl)oxy)phenyl)amino)-7-methoxyquinazolin-6-yl)amino)piperidin-1-yl)prop-2-en-1-one]
- GI50 (HCC827 cells): ≥ 1000 nM
- GI50 [1]: 300 to 600 nM
- GI50 [2]: 300 to 600 nM
- GI50 [3]: 300 to 600 nM
- GI50 (A431 cells): ≥ 1000 nM

SMILES: C=CC(=O)N1CCC(Nc2cc3c(Nc4ccc(Oc5ccnc(N6CCNC(C)(C)C6)c5)cc4F)ncnc3cc2OC)CC1 [Example 226, 1-(4-((4-((4-((2-(3,3-dimethylpiperazin-1-yl)pyridin-4-yl)oxy)-2-fluorophenyl)amino)-7-methoxyquinazolin-6-yl)amino)piperidin-1-yl)prop-2-en-1-one]
- GI50 (HCC827 cells): ≥ 1000 nM
- GI50 [1]: 300 to 600 nM
- GI50 [2]: ≥ 1000 nM
- GI50 [3]: ≥ 1000 nM
- GI50 (A431 cells): ≥ 1000 nM

SMILES: C=CC(=O)N1CCC(Nc2cc3c(Nc4ccc(Oc5ccnc(N6CCC[C@@H](OC)C6)c5)c(Cl)c4)ncnc3cc2OC)CC1 [Example 227, (R)-1-(4-((4-((3-chloro-4-((2-(3-methoxypiperidin-1-yl)pyridin-4-yl)oxy)phenyl)amino)-7-methoxyquinazolin-6-yl)amino)piperidin-1-yl)prop-2-en-1-one]
- GI50 (HCC827 cells): 100 to 300 nM
- GI50 [1]: 30 to 60 nM
- GI50 [2]: 60 to 100 nM
- GI50 [3]: 60 to 100 nM
- GI50 (A431 cells): 300 to 600 nM

SMILES: C=CC(=O)N1CCC(Nc2cc3c(Nc4ccc(Oc5ccnc(N6CCN(C)CC6)c5)c(Cl)c4)ncnc3cc2OC)CC1 [Example 228, 1-(4-((4-((3-chloro-4-((2-(4-methylpiperazin-1-yl)pyridin-4-yl)oxy)phenyl)amino)-7-methoxyquinazolin-6-yl)amino)piperidin-1-yl)prop-2-en-1-one]
- GI50 (HCC827 cells): 300 to 600 nM
- GI50 [1]: 100 to 300 nM
- GI50 [2]: 60 to 100 nM
- GI50 [3]: 60 to 100 nM
- GI50 (A431 cells): ≥ 1000 nM

SMILES: C=CC(=O)N1CCC(Nc2cc3c(Nc4ccc(Oc5ccnc(N6CCC(O)CC6)c5)c(Cl)c4)ncnc3cc2OC)CC1 [Example 229, 1-(4-((4-((3-chloro-4-((2-(4-hydroxypiperidin-1-yl)pyridin-4-yl)oxy)phenyl)amino)-7-methoxyquinazolin-6-yl)amino)piperidin-1-yl)prop-2-en-1-one]
- GI50 (HCC827 cells): 100 to 300 nM
- GI50 [1]: 60 to 100 nM
- GI50 [2]: 100 to 300 nM
- GI50 [3]: 100 to 300 nM
- GI50 (A431 cells): 300 to 600 nM

SMILES: C=CC(=O)N1CCC(Nc2cc3c(Nc4ccc(Oc5ccnc(N6CCC[C@@H](OC)C6)c5)cc4)ncnc3cc2OC)CC1 [Example 230, (R)-1-(4-((7-methoxy-4-((4-((2-(3-methoxypiperidin-1-yl)pyridin-4-yl)oxy)phenyl)amino)quinazolin-6-yl)amino)piperidin-1-yl)prop-2-en-1-one]
- GI50 (HCC827 cells): 300 to 600 nM
- GI50 [1]: 30 to 60 nM
- GI50 [2]: < 30 nM
- GI50 [3]: < 30 nM
- GI50 (A431 cells): ≥ 1000 nM

SMILES: C=CC(=O)N1CCC(Nc2cc3c(Nc4ccc(Oc5ccnc(N6CCN(C)CC6)c5)cc4)ncnc3cc2OC)CC1 [Example 231, 1-(4-((7-methoxy-4-((4-((2-(4-methylpiperazin-1-yl)pyridin-4-yl)oxy)phenyl)amino)quinazolin-6-yl)amino)piperidin-1-yl)prop-2-en-1-one]
- GI50 (HCC827 cells): ≥ 1000 nM
- GI50 [1]: 300 to 600 nM
- GI50 [2]: 100 to 300 nM
- GI50 [3]: 100 to 300 nM
- GI50 (A431 cells): ≥ 1000 nM

SMILES: C=CC(=O)N1CCC(Nc2cc3c(Nc4ccc(Oc5ccnc(-c6cccc(C)c6)c5)cc4F)ncnc3cc2OC)CC1 [Example 234, 1-(4-((4-((2-fluoro-4-((2-(m-tolyl)pyridin-4-yl)oxy)phenyl)amino)-7-methoxyquinazolin-6-yl)amino)piperidin-1-yl)prop-2-en-1-one]
- GI50 (HCC827 cells): 60 to 100 nM
- GI50 [1]: 30 to 60 nM
- GI50 [2]: < 30 nM
- GI50 [3]: < 30 nM
- GI50 (A431 cells): 300 to 600 nM

SMILES: C=CC(=O)N1CCC(Nc2cc3c(Nc4ccc(Oc5ccnc(-c6ccc(C)cc6)c5)cc4F)ncnc3cc2OC)CC1 [Example 235, 1-(4-((4-((2-fluoro-4-((2-(p-tolyl)pyridin-4-yl)oxy)phenyl)amino)-7-methoxyquinazolin-6-yl)amino)piperidin-1-yl)prop-2-en-1-one]
- GI50 (HCC827 cells): 60 to 100 nM
- GI50 [1]: 30 to 60 nM
- GI50 [2]: 30 to 60 nM
- GI50 [3]: 60 to 100 nM
- GI50 (A431 cells): 600 to 1000 nM

SMILES: C=CC(=O)N1CCC(Nc2cc3c(Nc4ccc(Oc5ccnc(-c6ccccn6)c5)cc4F)ncnc3cc2OC)CC1 [Example 236, 1-(4-((4-((4-([2,2′-bipyridin]-4-yloxy)-2-fluorophenyl)amino)-7-methoxyquinazolin-6-yl)amino)piperidin-1-yl)prop-2-en-1-one]
- GI50 (HCC827 cells): 100 to 300 nM
- GI50 [1]: < 30 nM
- GI50 [2]: < 30 nM
- GI50 [3]: < 30 nM
- GI50 (A431 cells): ≥ 1000 nM

SMILES: C=CC(=O)N1CCC(Nc2cc3c(Nc4ccc(Oc5ccnc(-c6cccnc6)c5)cc4F)ncnc3cc2OC)CC1 [Example 237, 1-(4-((4-((4-([2,3′-bipyridin]-4-yloxy)-2-fluorophenyl)amino)-7-methoxyquinazolin-6-yl)amino)piperidin-1-yl)prop-2-en-1-one]
- GI50 (HCC827 cells): 300 to 600 nM
- GI50 [1]: 30 to 60 nM
- GI50 [2]: 60 to 100 nM
- GI50 [3]: < 30 nM
- GI50 (A431 cells): ≥ 1000 nM

SMILES: C=CC(=O)N1CCC(Nc2cc3c(Nc4ccc(Oc5ccnc(-c6ccncc6)c5)cc4F)ncnc3cc2OC)CC1 [Example 238, 1-(4-((4-((4-([2,4′-bipyridin]-4-yloxy)-2-fluorophenyl)amino)-7-methoxyquinazolin-6-yl)amino)piperidin-1-yl)prop-2-en-1-one]
- GI50 (HCC827 cells): 100 to 300 nM
- GI50 [1]: < 30 nM
- GI50 [2]: < 30 nM
- GI50 [3]: < 30 nM
- GI50 (A431 cells): ≥ 1000 nM

SMILES: C=CC(=O)N1CCC(Nc2cc3c(Nc4ccc(Oc5ccnc(N6CC7CCCC7C6)c5)cc4F)ncnc3cc2OC)CC1 (centres unmarked) [Example 239, 1-(4-((4-((2-fluoro-4-((2-(hexahydrocyclopenta [c]pyrrol-2(1H)-yl)pyridin-4-yl)oxy)phenyl)amino)-7-methoxyquinazolin-6-yl)amino)piperidin-1-yl)prop-2-en-1-one]
- GI50 (HCC827 cells): < 30 nM
- GI50 [1]: < 30 nM
- GI50 [2]: 60 to 100 nM
- GI50 [3]: 60 to 100 nM
- GI50 (A431 cells): 300 to 600 nM

SMILES: C=CC(=O)N1CCC(Nc2cc3c(Nc4ccc(Oc5ccnc(N6CC7CN(C)CC7C6)c5)cc4F)ncnc3cc2OC)CC1 (centres unmarked) [Example 240, 1-(4-((4-((2-fluoro-4-((2-(5-methylhexahydropyrrolo[3,4-c]pyrrol-2(1H)-yl)pyridin-4-yl)oxy)phenyl)amino)-7-methoxyquinazolin-6-yl)amino)piperidin-1-yl)prop-2-en-1-one]
- GI50 (HCC827 cells): 600 to 1000 nM
- GI50 [1]: 300 to 600 nM
- GI50 [2]: 300 to 600 nM
- GI50 [3]: 300 to 600 nM
- GI50 (A431 cells): ≥ 1000 nM

SMILES: C=CC(=O)N1CCC(Nc2cc3c(Nc4ccc(Oc5ccnc(N6C[C@H]7CCCC[C@H]7C6)c5)cc4F)ncnc3cc2OC)CC1 [Example 241, 1-(4-((4-((2-fluoro-4-((2-((3aR,7aS)-octahydro-2H-isoindol-2-yl)pyridin-4-yl)oxy)phenyl)amino)-7-methoxyquinazolin-6-yl)amino)piperidin-1-yl)prop-2-en-1-one]
- GI50 (HCC827 cells): < 30 nM
- GI50 [1]: 30 to 60 nM
- GI50 [2]: 60 to 100 nM
- GI50 [3]: 60 to 100 nM
- GI50 (A431 cells): 600 to 1000 nM
